Reference: US7863285B2, “Purinone derivatives as HM74A agonists” (Incyte Corporation, priority 2006, dated 2011)

Key:
[1] = system: mature adipocytes; experiment: Adipocyte lipolysis assay; assay type: cell-based; conditions: glycerol in supernatants after overnight culture with IBMX (100 μM)
Procedure: Preadipocytes purchased from Zen Bio were plated at 8.7×10^4 cells/well in 96-well plates, differentiated for 14 days and mature adipocytes assayed during days 15 through 21. Adipocyte maturation is assessed by the presence of rounded cells with large lipid droplets in the cytoplasm. Following maturation, cells were washed and incubated overnight with IBMX (100 μM) and various concentrations of compound diluted in assay buffer containing a final DMSO concentration of 0.1%. After overnight culture, the glycerol concentration in the supernatants was determined with the Lipolysis Assay Kit purchased from Zen-Bio. Absorbance at 540 nm is directly proportional to the glycerol concentration in the sample. IC50 determinations were based on compound inhibition relative to DMSO controls. […] For example, the compound of Example 1 has an IC50 of 100 nM in this assay.

[2] = biological target: T1, human HM74a (Homo sapiens, UniProt Q8TDS4); experiment: GTPγS recruitment assay; assay type: biochemical; parameters: expressed in transfected cells; host or cells: HEK293 cells, transient transfection, membrane preparation; conditions: membranes of HEK293 cells transfected with human HM74a and Gα0; 35S GTPγS
Procedure: Membranes were prepared from HEK293 cells transiently transfected with human HM74a and Gα0 protein. Assays were performed in 384-well format in a volume of 50 μL per assay point. Serial dilutions of compounds were prepared in the assay buffer (20 mM HEPES pH. 7.4, 100 mM NaCl, 10 mM MgCl2, 10 mg/L saponin and 10 μM GDP) and mixed with membranes (2 μg per assay point) and ^35S GTPγS (Amersham, 0.3 nM) in the assay buffer. The mixtures were incubated at room temperature for 30 min and wheat germ agglutinin SPA beads (Amersham) (0.2 mg per assay point) in the assay buffer were added. After 30 min incubation with agitation, plates were centrifuged at 1500 g for 5 min and bound ^35S GTPγS was determined by counting on a TopCount scintillation counter.
Target sequence in this assay (Q8TDS4 whole entry): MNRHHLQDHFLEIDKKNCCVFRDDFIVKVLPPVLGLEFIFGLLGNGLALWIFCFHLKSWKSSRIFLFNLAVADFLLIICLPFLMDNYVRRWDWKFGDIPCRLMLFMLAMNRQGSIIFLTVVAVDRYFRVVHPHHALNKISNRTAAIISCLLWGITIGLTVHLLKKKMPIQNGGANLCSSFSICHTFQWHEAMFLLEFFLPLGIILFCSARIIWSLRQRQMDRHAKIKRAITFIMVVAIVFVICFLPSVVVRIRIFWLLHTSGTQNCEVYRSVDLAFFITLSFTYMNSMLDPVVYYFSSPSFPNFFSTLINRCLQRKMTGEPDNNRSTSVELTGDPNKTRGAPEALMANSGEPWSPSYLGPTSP
Target sequence in this assay (P09471 2-354 partner limits assumed): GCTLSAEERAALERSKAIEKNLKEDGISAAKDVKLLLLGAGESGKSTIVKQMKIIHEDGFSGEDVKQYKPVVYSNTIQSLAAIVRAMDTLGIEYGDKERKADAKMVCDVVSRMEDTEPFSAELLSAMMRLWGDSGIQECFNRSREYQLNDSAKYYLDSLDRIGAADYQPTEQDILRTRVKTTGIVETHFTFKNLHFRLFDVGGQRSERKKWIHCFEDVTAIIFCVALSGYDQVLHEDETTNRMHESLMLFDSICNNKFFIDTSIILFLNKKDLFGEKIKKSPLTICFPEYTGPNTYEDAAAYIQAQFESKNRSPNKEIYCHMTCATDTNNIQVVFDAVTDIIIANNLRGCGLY
Target sequence in this assay (P62873 2-340 partner limits assumed): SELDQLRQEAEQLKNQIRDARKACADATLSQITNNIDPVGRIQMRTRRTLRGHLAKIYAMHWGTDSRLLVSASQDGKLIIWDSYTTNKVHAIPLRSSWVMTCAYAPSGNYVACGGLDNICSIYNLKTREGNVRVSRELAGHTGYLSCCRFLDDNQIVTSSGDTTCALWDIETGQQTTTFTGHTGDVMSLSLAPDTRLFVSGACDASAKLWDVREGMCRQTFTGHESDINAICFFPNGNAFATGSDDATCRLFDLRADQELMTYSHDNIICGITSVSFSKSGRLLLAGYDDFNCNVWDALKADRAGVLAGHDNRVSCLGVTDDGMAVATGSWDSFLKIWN
Target sequence in this assay (P59768 2-68 partner limits assumed): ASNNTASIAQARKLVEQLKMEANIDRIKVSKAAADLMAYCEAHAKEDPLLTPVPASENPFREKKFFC

[3] = biological target: T1, human HM74a; experiment: cAMP assay; assay type: cell-based; parameters: expressed in transfected cells; conditions: CHO cells stably transfected with human HM74a; 5 μM forskolin; inhibition relative to DMSO controls
Procedure: CHO cells stably transfected with human HM74a were seeded at 7,500 cells/well in a 96-well plate in HAMS F12 medium with 10% FBS. The plate was incubated overnight at 37° C. and 5% CO2. The test compounds were prepared in a stimulation buffer containing 1×HANKS, 20 mM HEPES, 5 μM forskolin, and 0.25 mM IBMX. The media from the cell plate was removed before adding 30 μL of the test compounds. After 30 minute incubation at 37° C. and 5% CO2, the cAMP level was assayed using HitHunter cAMP XS assay kit (DiscoverX, CA). IC50 determinations were based on compound inhibition relative to DMSO controls.
Target sequence in this assay (Q8TDS4 whole entry): as the sequence (Q8TDS4 whole entry) above

[4] = clinical, cited from earlier work; for lowering of plasma LDL: monotherapy

| SMILES | IC50 [1] [nM] | EC50 [2] [nM] | IC50 [3] [nM] | lowering of plasma LDL [4] [%] | decrease of plasma triglycerides [4] [%] | raising HDL levels [4] |
| --- | --- | --- | --- | --- | --- | --- |
| CCCCCn1c(=O)n2cnnc2c2[nH]c(C(F)(F)F)nc21 [Example 1, 6-pentyl-8-(trifluoromethyl)-6,9-dihydro-5H-[1,2,4]triazolo[3,4-i]purin-5-one] | 100 | 61 | 20 | – | – | – |
| O=C1[C@H](CC[C@H](O)c2ccc(F)cc2)[C@@H](c2ccc(O)cc2)N1c1ccc(F)cc1 [Ezetimibe] | – | – | – | 20 | – | – |
| O=C(O)c1cccnc1 [Nicotinic acid, nicotinic acid] | – | – | – | 16 | 38 | 20-30% |
